Test results published in publication PMC7722873 (Scientific Reports, 2020).
Read-outs that look alike come from different tables or passages of the source. No end group written: not given here.

Assays:
[1] = tested on: 84 human inflammatory cytokines and receptors; assay type: cell-based
VEEV TC-83 [2] = assay type: cell-based, Venezuelan equine encephalitis virus
VEEV TC-83 [3] = assay type: cell-based, Venezuelan equine encephalitis virus; remark: listed apart in the source
EEEV (GA97 strain) = assay type: cell-based, eastern equine encephalitis virus
[4] = tested on: IFNγ, IL1α, IL1β, IL2, IL4, IL6, IL10, IL12p70, TNFα; assay type: cell-based, human
RVFV (MP-12 strain) = assay type: cell-based, Rift Valley fever virus
VEEV TrD strain [5] = assay type: cell-based, Venezuelan equine encephalitis virus
VEEV TC-83 [6] = assay type: cell-based, Venezuelan equine encephalitis virus; remark: listed apart in the source
VEEV TC-83 [7] = assay type: cell-based, Venezuelan equine encephalitis virus; remark: listed apart in the source
[8] = tested on: 84 human inflammatory cytokines and receptors; assay type: cell-based; remark: listed apart in the source
VEEV TrD strain [9] = assay type: cell-based, Venezuelan equine encephalitis virus; remark: listed apart in the source
[10] = tested on: IFNγ, IL1α, IL1β, IL2, IL4, IL6, IL10, IL12p70, TNFα; assay type: cell-based, human; remark: listed apart in the source
HMC3 cells = conditions: 24 h
VEEV TC-83 [11] = assay type: cell-based, Venezuelan equine encephalitis virus; remark: listed apart in the source
[12] = tested on: wild-type Trinidad Donkey (TrD) strain of VEEV; conditions: cited from earlier work
[13] = tested on: VEEV TC-83 vaccine strain; conditions: cited from earlier work
VEEV TC-83 [14] = assay type: cell-based, Venezuelan equine encephalitis virus; remark: listed apart in the source

Substance: FAVVKFRFWVWWFRWR-NH2 [A2]
- Fold Regulation, AIMP1 [1]: -2.17
- Fold Regulation, B2M [1]: -2.51
- Fold Regulation, C5 [1]: -3.11
- Fold Regulation, CCL1 [1]: -2.21
- Fold Regulation, CCL3 [1]: -11.1
- Fold Regulation, CCL4 [1]: -12.54
- Fold Regulation, CCL7 [1]: -3.26
- Fold Regulation, CCL8 [1]: -6.18
- Fold Regulation, CCL13 [1]: -2.73
- Fold Regulation, CCL17 [1]: -2.71
- Fold Regulation, CCL20 [1]: -2.91
- Fold Regulation, CCL23 [1]: -2.03
- Fold Regulation, CCL24 [1]: -2.6
- Fold Regulation, CCL26 [1]: -2.44
- Fold Regulation, CCR1 [1]: -2.78
- Fold Regulation, CCR2 [1]: -7.36
- Fold Regulation, CCR3 [1]: -2.71
- Fold Regulation, CCR5 [1]: -3.23
- Fold Regulation, CCR6 [1]: -5.15
- Fold Regulation, CCR8 [1]: -2.77
- Fold Regulation, CD40LG [1]: -8.44
- Fold Regulation, CSF1 [1]: -2.23
- Fold Regulation, CSF2 [1]: -7.67
- Fold Regulation, CSF3 [1]: -8.01
- Fold Regulation, CXCL1 [1]: -2.79
- Fold Regulation, CXCL2 [1]: -2.97
- Fold Regulation, CXCL3 [1]: -8.92
- Fold Regulation, CXCL5 [1]: -3.43
- Fold Regulation, CXCL6 [1]: -3.46
- Fold Regulation, CXCL8 [1]: -4.74
- Fold Regulation, CXCL9 [1]: -2.67
- Fold Regulation, CXCR1 [1]: -4.9
- Fold Regulation, CXCR2 [1]: -2.22
- Fold Regulation, FASLG [1]: -2.27
- Fold Regulation, HPRT1 [1]: -2.53
- Fold Regulation, IFNA2 [1]: -4.07
- Fold Regulation, IL1A [1]: -40.4
- Fold Regulation, IL1B [1]: -4.37
- Fold Regulation, IL1R1 [1]: -2.63
- Fold Regulation, IL1RN [1]: 2.19
- Fold Regulation, IL3 [1]: -2.76
- Fold Regulation, IL5 [1]: -5.46
- Fold Regulation, IL5RA [1]: -4.55
- Fold Regulation, IL7 [1]: 9.88
- Fold Regulation, IL9 [1]: -3.51
- Fold Regulation, IL9R [1]: -2.48
- Fold Regulation, IL10RA [1]: -3.22
- Fold Regulation, IL10RB [1]: -2.31
- Fold Regulation, IL13 [1]: -4.71
- Fold Regulation, IL15 [1]: -2.47
- Fold Regulation, IL16 [1]: -2.42
- Fold Regulation, IL17A [1]: -10.02
- Fold Regulation, IL17F [1]: -13.11
- Fold Regulation, IL21 [1]: -2.43
- Fold Regulation, IL27 [1]: -2.99
- Fold Regulation, LTA [1]: -4.72
- Fold Regulation, LTB [1]: -3.31
- Fold Regulation, NAMPT [1]: -2.42
- Fold Regulation, OSM [1]: -9.67
- Fold Regulation, RPLP0 [1]: -2.88
- Fold Regulation, SPP1 [1]: -2.4
- Fold Regulation, TNF [1]: -9.95
- Fold Regulation, TNFRSF11B [1]: -4.24
- Fold Regulation, TNFSF4 [1]: -2.68
- Fold Regulation, TNFSF10 [1]: -2.78
- Fold Regulation, TNFSF11 [1]: -4.37
- Fold Regulation, TNFSF13 [1]: -6.12
- Fold Regulation, TNFSF13B [1]: -3.19
- genes down regulated (twofold) [1]: 67 genes
- genes out of 84 with greater than twofold change in regulation [1]: 71 genes
- genes upregulated (greater than twofold) [1]: 4 genes
- decrease in extracellular genomic TC-83 RNA copy numbers (VEEV TC-83 [2]): more than 50%
- decrease in intracellular genomic TC-83 RNA copy numbers (VEEV TC-83 [2]): more than 50%
- inhibition of VEEV attachment (amount of viral RNA entering cells) (VEEV TC-83 [3]): inhibited VEEV attachment to cells
- inhibition of replication of EEEV (EEEV (GA97 strain)): higher than tenfold
- lower levels of EEEV replication, pre-treated cells (EEEV (GA97 strain)): ~ 4.5 fold
- secretion of cytokines from TC-83 infected cells [4]: inhibit secretion of cytokines
- inhibition of replication of RVFV (RVFV (MP-12 strain)): less than tenfold
- TrD titer inhibition, cells treated at infection relative to pre-treated cells (VEEV TrD strain [5]): tenfold
- decrease of TrD titers (VEEV TrD strain [5]): about 100 fold
- genomic TC-83 RNA copy numbers (intracellular and extracellular) (VEEV TC-83 [6]): reduced
- decrease in TC-83 infectious titers (VEEV TC-83 [7]): ~ 1,000 fold
- Fold Regulation, CCL2 [8]: -2.07
- genes above/below a twofold regulation change [8]: eight
- decrease of TrD titers (VEEV TrD strain [9]): about 100 fold
- production of cytokines, pro-inflammatory and anti-inflammatory, from uninfected cells [10]: decreased the production of cytokines
- CC50 (HMC3 cells): greater than 250 µg/mL

Substance: FQAVKFRFWVWWFRWR-NH2 [A3]
- Fold Regulation, C5 [1]: -4.7
- Fold Regulation, CCL1 [1]: -3.46
- Fold Regulation, CCL3 [1]: -6.01
- Fold Regulation, CCL4 [1]: -10.37
- Fold Regulation, CCL5 [1]: -2.56
- Fold Regulation, CCL17 [1]: -2.48
- Fold Regulation, CCL20 [1]: -2.88
- Fold Regulation, CCL26 [1]: -2.76
- Fold Regulation, CCR1 [1]: -2.01
- Fold Regulation, CCR8 [1]: -2.56
- Fold Regulation, CD40LG [1]: -13.61
- Fold Regulation, CSF1 [1]: -2.16
- Fold Regulation, CSF2 [1]: -6.65
- Fold Regulation, CSF3 [1]: -2.47
- Fold Regulation, CX3CL1 [1]: -40.25
- Fold Regulation, CXCL2 [1]: -2.14
- Fold Regulation, CXCL3 [1]: -7.92
- Fold Regulation, CXCL5 [1]: -2.3
- Fold Regulation, CXCL8 [1]: -3.42
- Fold Regulation, CXCL10 [1]: -2.5
- Fold Regulation, CXCL12 [1]: -2.21
- Fold Regulation, CXCL13 [1]: -2.43
- Fold Regulation, IL1A [1]: -75.02
- Fold Regulation, IL1B [1]: -3.92
- Fold Regulation, IL1R1 [1]: -2.45
- Fold Regulation, IL5 [1]: -4.29
- Fold Regulation, IL5RA [1]: -6.83
- Fold Regulation, IL10RA [1]: -2.36
- Fold Regulation, IL10RB [1]: -3.04
- Fold Regulation, IL15 [1]: -2.18
- Fold Regulation, IL16 [1]: -2.19
- Fold Regulation, IL17F [1]: -17.44
- Fold Regulation, IL27 [1]: -3.21
- Fold Regulation, LTB [1]: -2.77
- Fold Regulation, OSM [1]: -11.73
- Fold Regulation, RPLP0 [1]: -2.15
- Fold Regulation, TNF [1]: -30.83
- Fold Regulation, TNFRSF11B [1]: -3.73
- Fold Regulation, TNFSF10 [1]: -3.34
- Fold Regulation, TNFSF13B [1]: -4.76
- genes down regulated (twofold) [1]: 60 genes
- decrease in extracellular genomic TC-83 RNA copy numbers (VEEV TC-83 [2]): more than 50%
- decrease in intracellular genomic TC-83 RNA copy numbers (VEEV TC-83 [2]): more than 50%
- inhibition of VEEV attachment (amount of viral RNA entering cells) (VEEV TC-83 [3]): tenfold
- inhibition of replication of EEEV (EEEV (GA97 strain)): higher than tenfold
- lower levels of EEEV replication, pre-treated cells (EEEV (GA97 strain)): ~ 4.5 fold
- secretion of cytokines from TC-83 infected cells [4]: inhibit secretion of cytokines
- inhibition of replication of RVFV (RVFV (MP-12 strain)): less than tenfold
- TrD inhibitory response, pre-treatment relative to no pre-treatment (VEEV TrD strain [5]): tenfold
- decrease of TrD titers (VEEV TrD strain [5]): about 100 fold
- genomic TC-83 RNA copy numbers (intracellular and extracellular) (VEEV TC-83 [6]): reduced
- decrease in TC-83 infectious titers (VEEV TC-83 [7]): ~ 100 fold
- Fold Regulation, CCL13 [8]: 2.44
- Fold Regulation, CCL16 [8]: 3.4
- Fold Regulation, CCL22 [8]: 3.4
- Fold Regulation, CX3CR1 [8]: 2.38
- Fold Regulation, CXCL9 [8]: 3.12
- Fold Regulation, FASLG [8]: 2.15
- Fold Regulation, IL9R [8]: 2.56
- Fold Regulation, IL33 [8]: 3.21
- genes above/below a twofold regulation change [8]: 30 genes
- genes down-regulated (twofold) [8]: 2 genes
- genes upregulated (twofold) [8]: 28 genes
- decrease of TrD titers (VEEV TrD strain [9]): about 100 fold
- production of cytokines, pro-inflammatory and anti-inflammatory, from uninfected cells [10]: decreased the production of cytokines
- CC50 (HMC3 cells): greater than 250 µg/mL

Substance: FQVVKFRFWVWWFRWR [G8]
- VEEV TC-83 titer inhibition (VEEV TC-83 [11]): comparable to a known inhibitor, bortezomib

Substance: LL-37 (LLGDFFRKSKEKIGKEFKRIVQRIKDFLRNLVPRTES; Antibacterial peptide LL-37; UniProt P49913 134-170, looked up)
- inhibition of viral titers [12]: ~1,000 fold
- inhibition of viral titers [13]: approximately 100 fold

Substance: ILPWKWPWWPWRR-NH2 [Indolicidin, indolicidin]
- antiviral activity against VEEV (VEEV TC-83 [14]): no antiviral activity
